Values joined by “and” are separate entries in the source; they are usually repeats but may differ in a detail not shown here. Identical values can stand only once.
Tests used:
[1] = Liquid
[2] = molar heat capacity at constant pressure; settings: 101.33 kPa, Liquid

CC1=CC[C@@H]2[C@H](C1)C2(C)C [(+)-3-carene]
Settings	molar heat capacity at constant pressure [J/K/mol]	vapor or sublimation pressure
[1], 238.2 K, Closed cell (Static) method	–	0.00159 kPa and 0.001592 kPa and 0.001594 kPa
[1], 243.2 K, Closed cell (Static) method	–	0.002721 kPa and 0.002723 kPa
[1], 248.15 K, Closed cell (Static) method	–	0.004526 kPa and 0.004529 kPa
[1], 253.15 K, Closed cell (Static) method	–	0.007382 kPa and 0.007383 kPa and 0.007377 kPa
[1], 258.15 K, Closed cell (Static) method	–	0.01179 kPa and 0.0118 kPa
[1], 263.15 K, Closed cell (Static) method	–	0.01845 kPa and 0.01846 kPa
[1], 268.15 K, Closed cell (Static) method	–	0.02832 kPa and 0.02833 kPa
[1], 273.15 K, Closed cell (Static) method	–	0.04266 kPa and 0.04267 kPa
[1], 273.65 K, Closed cell (Static) method	–	0.0444 kPa and 0.04442 kPa and 0.04443 kPa
[1], 278.15 K, Closed cell (Static) method	–	0.06318 kPa and 0.06319 kPa
[1], 283.15 K, Closed cell (Static) method	–	0.09204 kPa and 0.09205 kPa
[1], 288.15 K, Closed cell (Static) method	–	0.1321 kPa
[1], 293.15 K, Closed cell (Static) method	–	0.1868 kPa
[1], 298.15 K, Closed cell (Static) method	–	0.2604 kPa and 0.2605 kPa
[1], 303.15 K, Closed cell (Static) method	–	0.3585 kPa
[1], 308.15 K, Closed cell (Static) method	–	0.4873 kPa
[2], 260.1 K, Large sample (1 g) DSC	236.9	–
[2], 265 K, Large sample (1 g) DSC	239.2	–
[2], 270 K, Large sample (1 g) DSC	241.6	–
[2], 275 K, Large sample (1 g) DSC	244.1	–
[2], 280 K, Large sample (1 g) DSC	246.3	–
[2], 285 K, Large sample (1 g) DSC	248.4	–
[2], 290 K, Large sample (1 g) DSC	250.6	–
[2], 295 K, Large sample (1 g) DSC	252.6	–
[2], 300 K, Large sample (1 g) DSC	254.8	–
[2], 305 K, Large sample (1 g) DSC	257.2	–
[2], 310 K, Large sample (1 g) DSC	259.6	–

Settings	molar heat capacity at constant pressure [J/K/mol]	vapor or sublimation pressure
[1], 273.15 K	–	0.04241 kPa and 0.04243 kPa and 0.04244 kPa
[1], 278.15 K	–	0.06282 kPa and 0.06283 kPa
[1], 283.15 K	–	0.09152 kPa and 0.09153 kPa and 0.09154 kPa
[1], 288.15 K	–	0.1313 kPa
[1], 293.15 K	–	0.1855 kPa
[1], 298.15 K	–	0.2584 kPa and 0.2585 kPa
[1], 303.15 K	–	0.3553 kPa
[1], 308.15 K	–	0.4825 kPa
[2], 258.1 K	235.6	–
[2], 263.2 K	237.8	–
[2], 268.3 K	240.2	–
[2], 273.4 K	242.4	–
[2], 278.5 K	244.9	–
[2], 283.6 K	247.2	–
[2], 288.7 K	249.6	–
[2], 293.8 K	251.9	–
[2], 298.9 K	254.3	–
[2], 304 K	256.6	–
[2], 309.1 K	259	–
[2], 314.2 K	261.4	–
[2], 319.4 K	263.7	–
[2], 324.5 K	266.3	–
[2], 329.6 K	268.9	–
[2], 334.7 K	271.5	–
[2], 339.8 K	274	–
[2], 344.9 K	276.6	–
[2], 350 K	279.3	–
[2], 355.1 K	281.8	–

C=C(C)[C@@H]1CC=C(C)CC1 [(S)-1-methyl-4-(1-methylethenyl)cyclohexene]
Settings	molar heat capacity at constant pressure [J/K/mol]	vapor or sublimation pressure
[1], 273.65 K, Closed cell (Static) method	–	0.03073 kPa and 0.03074 kPa and 0.03075 kPa
[1], 278.15 K, Closed cell (Static) method	–	0.0441 kPa and 0.04411 kPa
[1], 283.15 K, Closed cell (Static) method	–	0.06487 kPa and 0.06488 kPa and 0.0649 kPa
[1], 288.15 K, Closed cell (Static) method	–	0.09392 kPa and 0.09395 kPa
[1], 293.15 K, Closed cell (Static) method	–	0.1339 kPa
[1], 298.15 K, Closed cell (Static) method	–	0.1883 kPa
[1], 303.15 K, Closed cell (Static) method	–	0.2609 kPa and 0.261 kPa
[1], 308.15 K, Closed cell (Static) method	–	0.3575 kPa and 0.3576 kPa
[2], 260.1 K, Large sample (1 g) DSC	240.3	–
[2], 265 K, Large sample (1 g) DSC	242.5	–
[2], 270 K, Large sample (1 g) DSC	244.8	–
[2], 275 K, Large sample (1 g) DSC	247.1	–
[2], 280 K, Large sample (1 g) DSC	249.2	–
[2], 285 K, Large sample (1 g) DSC	251.3	–
[2], 290 K, Large sample (1 g) DSC	253.4	–
[2], 295 K, Large sample (1 g) DSC	255.8	–
[2], 300 K, Large sample (1 g) DSC	257.8	–
[2], 305 K, Large sample (1 g) DSC	260.2	–
[2], 310 K, Large sample (1 g) DSC	262.5	–

Source: the NIST ThermoML archive (doi:10.1016/j.jct.2014.04.022)
